Molecules are shown by their SMILES.

Series [1] concerns human bladder cancer cell line NTUB1. The series is described as follows: Trial (A): cytotoxic effect, IC50 by median-effect analysis. The format is cell-based. Particulars: NTUB1 cells. The text has this:
(§1) For the sake of proving therapeutic effects of the derivatives of 18β-glycyrrhetinic acid of the present invention, including 10, 11, 13-17 and 21-25, in treating of cancer, human bladder cancer cell line NTUB1, human prostate cancer cell line PC3 cataloged as CRL-1435 (reference to J. Formosan Med. Assoc. 1992; 91:608-13), and immortalized normal human urothelial cells SV-HUC1 cataloged as CRL-9520 are purchased from American Type Culture Collection (ATCC; Rockville, USA) and maintained in a culturing medium respectively till at a preferable density to carry out a serial of trials (comprising trial A to G) for evaluating cytotoxicities of the derivatives of 18β-glycyrrhetinic acid against cancer cells, and mechanisms thereof.
In the present invention, the NTUB1 and the PC3 is but not limit to be maintained in RPMI 1640 medium supplemented 10% fetal bovine serum (FBS), 100 unit/mL penicillin-G, 100 μg/mL streptomycin, and 2 mM L-glutamine, yet the SV-HUC1 is maintained in F12 medium supplemented with 10% fetal bovine serum (FBS), 100 unit/mL penicillin-G, 100 μg/mL streptomycin, and 2 mM L-glutamine, culturing at 37° C. in a humidified atmosphere containing 5% CO2 till at a density of 70% per well, followed by repeatedly suspending cells in each well with an ethylene diamine tetra-acetic acid buffer (EDTA buffer; Merck) and counting cell numbers.
In the present invention, the IC50 values of each group are presented as mean±standard deviation (SD).

Series [2] deals with immortalized normal human urothelial cells SV-HUC1. The experiment in a line: Trial (B): MTT assay on normal cells, 72 hours. The format is cell-based. As to conditions: 0-50 μM.
Excerpt: as §1, with “thereof. […]” for “thereof.”
In trial (B), the cell lines of NTUB1, PC3, and SV-HUC1 are prepared in 96-well plates and co-incubated with the compounds 21, 23 or 25 in various concentrations of 0, 0.3, 1, 3, 5, 10, 30 and 50 μM, to analyze cytotoxic effects against either cancer cell or normal cells via a modified 3-[4,5-dimethylthiazol-2-yl]-2,5-diphenyltetrazolium bromide (MTT, Sigma Chemical Co.) assay. […] At co-incubation, 50 μL of MTT (2 mg/mL in PB) is added to each well to react for 3 hours, followed by centrifugating the 96-well plates at 1000 g for 10 min to remove supernatant, adding 150 μL DMSO in each well of the 96-well plates, and determining viability rates of the NTUB1, PC3, and SV-HUC1 cells separately by an absorbance spectrometry at 540 nm with a MRX (DYNEXCO) microplate reader.
A general note: Tetrazolium assays rely on reduction of a dye to a coloured formazan, in cell work by metabolically active cells.

Series [3] relates to NTUB1 cells. The series is described as follows: Trial (E): cell cycle progression by flow cytometry (propidium iodide). The format is cell-based, human. Details: Sub-G1 / G1: unit not given here. As to conditions: for G1 / G2/M / S / Sub-G1: 24 hours. As for the experimental part:
In order to determine a relationship between the derivatives of 18β-glycyrrhetinic acid of the present invention and cell cycle arrest, trial (E) is carried out by analyzing cell cycle progression by flow cytometry. […] After that, cell cycle progression of each group is determined respectively by incubating with 50 μg/mL propidium iodide (Sigma, Co) and 50 μg/mL RNase A (Sigma, Co) in PBS at room temperature for 30 min, and analyzing by FACScan flow cytometer and Cell Quest sofeware.
(In general: A flow cytometer gives signals particle by particle.)

Series [4] concerns NTUB1 cells. The series is described as follows: Trial (F): mitochondrial membrane potential (JC-1) by flow cytometry. Type of series: cell-based, human. As to conditions: for R1 (%): 30 minutes, JC-1, NTUB1. As for the experimental part:
In trial (F), mitochondrial membrane potential (MMP) in NTUB1 cells is measured according to a journal article published by Martin et al., at 2009 in PloS one, in which a dysfunction of the mitochondria caused by ROS induced MPP decrease is supposed.
Referring to TABLE 6, the NTUB1 cells at a density of 3×10^5 cells/ml are prepared and assigned into 5 groups, including F1 to F5, to incubate in 10 μM carbonyl cyanide 3-chlorophenylhydrazone (CCCP), and 10, 25 and 50 μM of 25 respectively, for 30 minutes, followed by adding 1 μM of 5,5′,6,6′-tetrachloro-1,1′,3,3′-tetraethylbenzimidaolylcarbocyanine iodide (JC-1) (Molecular Probes, Eugene, Oreg., USA) in each group. Then, the NTUB1 cells in each group are washed with PBS buffer for 3 times, collected in PBS/2% BSA, washed twice by centrifugating at 800 g, 5 minutes and resuspending in 0.3 mL PBS/2% BSA, and finally analyzed by a FACSCalibur flow cytometer (Becton Dickinson), with the FACSCalibur flow cytometer determining and calculating a ratio of JC-1 aggregates (red fluorescence) to JC-1 monomers (green fluorescence) based on levels of MMP in each group.

A word on the IC50: it is the point on the concentration scale where inhibition reaches its midpoint. Consider `C=C(C)[C@@H]1CC[C@]2(C)[C@H](C(=O)C=C3[C@@H]4C[C@@](C)(C(=O)NC(C)C)CC[C@]4(C)CC[C@]32C)[C@@]1(C)CCC(=O)NC(C)C` [Compound 25, 3,4-seco-11-oxo-18β-olean-4(23),12-dien-3,30-diisopropyl carbamate], for which the “cytotoxic effect against cancer cell” value in series [1] (with reference to TABLE 2) is “significantly suppress the growth of cancer cells with a lower concentrate”. Besides, in series [1] (mean ± SD), half-maximal inhibition (IC50) required 4.76 ± 1.15 µM. Further, the “effect on growth of normal cells (survival ratio, FIGS. 4-6)” value in series [2] was “enhance the growth of SV-HUC1 cells”. In the series with NTUB1 cells [3] (25 μM, NTUB1), the G1 worked out at 49.51, the G2/M was determined as 12.68, the S was 12.69 and the Sub-G1 was determined as 20.39. In the series with NTUB1 cells [3] (50 μM, NTUB1), the G1 is on record as 35.72, the G2/M is listed as 5.22, the S came to 3.15 and the Sub-G1 was 55.71. In the series with NTUB1 cells [3] (75 μM, NTUB1), this molecule displayed a G1 of 14.69, a G2/M of 4.00, an S of 2.79 and a Sub-G1 of 78.39. Besides, in the series on NTUB1 cells [3] (25, 50 and 75 μM, NTUB1), the “cell cycle arrest” value is listed as “does not induce cell cycle arrest” and the “population of sub-G1 phase” value is “induce the population of sub-G1 phase to cancer cells in dose-dependent manner”. Also, the “S phase cells” value with NTUB1 cells [3] (NTUB1 exposed to compound) was “a decrease of S phase cells”. Besides, the “R1 (%)” value in the series on NTUB1 cells [4] (10 μM) turned out to be 94.14%. Also, the “R1 (%)” value with NTUB1 cells [4] (25 μM) was determined as 87.17%. In addition, in the series on NTUB1 cells [4] (50 μM), the “R1 (%)” value is given as 55.65%. The “mitochondrial membrane potential” value in the series with NTUB1 cells [4] (NTUB1, TABLE 6) is “decrease MPP in cancer cells in a dose-dependent manner”.

The values above are taken from patent publication US8686178B2, “Derivative of 18β-glycyrrhetinic acid apt to suppress cancer cells” (Kaohsiung Medical University, priority 2011, dated 2014).
